Where two headings read alike, the source gives them in different places.
Experiments:
human DGKα = molecular target: T1, human DGKα (Homo sapiens, UniProt P23743); test: DGKα LIPGLO assay (extruded liposome substrate), in vitro DGK inhibition; format: biochemical; settings: read-out: DGKa LIPGLO IC50
T1 construct: TVMV protease cleavage site (C); Hexa-His (C); made in house; host or cells: Sf9 insect cells (baculovirus, Bac-to-Bac)

human DGKζ = molecular target: T2, human DGKζ (Homo sapiens, UniProt Q13574); test: DGKζ LIPGLO assay (extruded liposome substrate), in vitro DGK inhibition; format: biochemical; settings: read-out: DGKz LIPGLO IC50
T2 construct: TVMV protease cleavage site (C); Hexa-His (C); made in house; host or cells: Sf9 insect cells (baculovirus, Bac-to-Bac)

[1] = test system: OT-1 CD8+ T cells with SIINFEKL-loaded MC38 tumor cells; test: Murine cytotoxic T lymphocyte assay (IFN-γ, OT-1 CTL with MC38 tumor cells); format: cell-based, mouse; settings: read-out: msCTL INFg IC50
Source text: 5. Murine Cytotoxic T Lymphocyte Assay
An antigen-specific cytolytic T-cell (CTL) assay was developed to evaluate functionally the ability of DGKα and DGKζ inhibitors to enhance effector T cell mediated tumor cell killing activity. CD8+ T-cells isolated from the OT-1 transgenic mouse recognize antigen presenting cells, MC38, that present the ovalbumin derived peptide […]. Recognition of the cognate antigen initiates the cytolytic activity of the OT-1 antigen-specific CD8+ T cells.
Functional CTL cells were generated as follows: OT-1 splenocytes from 8-12 week old mice were isolated and expanded in the presence of the […] peptide at 1 μg/mL and mIL2 at 10 U/mL. After three days, fresh media with […] was added. On day 5 of the expansion, the CD8+ T cells were isolated and ready for use. Activated CTL cells may be stored frozen for 6 months. Separately, one million MC38 tumor cells were pulsed with 1 μg/mL of […]-OVA peptide for 3 hours at 37° C. The cells were washed (3×) with fresh media to remove excess peptide. Finally, CTL cells that were pretreated with DGK inhibitors for 1 hour in a 96-well U bottom plate were combined with the antigen loaded MC38 tumor cells at a 1:10 ratio. The cells were then spun at 700 rpm for 5 min and placed in an incubator overnight at 37° C. After 24 hours, the supernatant was collected for analysis of IFN-γ cytokine levels by AlphaLisa purchased from Perkin Elmer.

Human venous whole blood = test: Human whole blood IFN-γ assay; format: cell-based; settings: normalized to 3 μM reference compound with anti-CD3 plus anti-CD28 as 100% activation;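 note: blood from healthy donors exposed to compound for 1 h before stimulation with anti-CD3 and anti-CD28 at 1 µg/mL each, IFN-γ quantified in supernatant by AlphaLISA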
[2] = Homo sapiens, 24 h, human whole blood, read-out: INFg Whole Blood Normalized Agonist EC50
[3] = human whole blood, read-out: INFg Whole Blood Normalized Agonist EC50

T2 sequence (Q13574 with tags, fused parts or gaps isoform Q13574-4): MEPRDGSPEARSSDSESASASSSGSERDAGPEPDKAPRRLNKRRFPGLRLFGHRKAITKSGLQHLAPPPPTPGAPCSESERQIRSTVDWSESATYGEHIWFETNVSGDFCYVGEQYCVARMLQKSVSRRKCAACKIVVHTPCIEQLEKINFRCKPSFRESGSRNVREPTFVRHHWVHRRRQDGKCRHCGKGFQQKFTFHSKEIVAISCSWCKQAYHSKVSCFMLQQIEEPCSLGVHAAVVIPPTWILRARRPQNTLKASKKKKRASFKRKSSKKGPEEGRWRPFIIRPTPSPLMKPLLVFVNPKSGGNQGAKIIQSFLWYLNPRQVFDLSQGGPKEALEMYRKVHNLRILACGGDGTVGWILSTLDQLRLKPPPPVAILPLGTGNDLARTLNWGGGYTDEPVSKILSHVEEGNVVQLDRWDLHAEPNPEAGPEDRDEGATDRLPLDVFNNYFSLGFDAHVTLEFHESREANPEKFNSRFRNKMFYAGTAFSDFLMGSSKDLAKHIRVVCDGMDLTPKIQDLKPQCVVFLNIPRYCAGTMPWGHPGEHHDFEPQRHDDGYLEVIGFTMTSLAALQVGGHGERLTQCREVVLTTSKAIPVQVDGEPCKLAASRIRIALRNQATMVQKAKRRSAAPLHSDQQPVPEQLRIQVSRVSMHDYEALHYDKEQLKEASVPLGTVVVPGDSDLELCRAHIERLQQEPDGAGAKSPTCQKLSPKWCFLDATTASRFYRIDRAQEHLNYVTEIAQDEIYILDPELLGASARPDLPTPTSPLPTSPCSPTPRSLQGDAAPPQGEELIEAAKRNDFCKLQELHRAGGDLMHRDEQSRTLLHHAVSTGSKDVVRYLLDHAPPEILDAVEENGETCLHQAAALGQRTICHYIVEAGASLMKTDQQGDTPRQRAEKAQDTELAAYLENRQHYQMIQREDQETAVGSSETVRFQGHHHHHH
T1 sequence (P23743 with tags, fused parts or gaps): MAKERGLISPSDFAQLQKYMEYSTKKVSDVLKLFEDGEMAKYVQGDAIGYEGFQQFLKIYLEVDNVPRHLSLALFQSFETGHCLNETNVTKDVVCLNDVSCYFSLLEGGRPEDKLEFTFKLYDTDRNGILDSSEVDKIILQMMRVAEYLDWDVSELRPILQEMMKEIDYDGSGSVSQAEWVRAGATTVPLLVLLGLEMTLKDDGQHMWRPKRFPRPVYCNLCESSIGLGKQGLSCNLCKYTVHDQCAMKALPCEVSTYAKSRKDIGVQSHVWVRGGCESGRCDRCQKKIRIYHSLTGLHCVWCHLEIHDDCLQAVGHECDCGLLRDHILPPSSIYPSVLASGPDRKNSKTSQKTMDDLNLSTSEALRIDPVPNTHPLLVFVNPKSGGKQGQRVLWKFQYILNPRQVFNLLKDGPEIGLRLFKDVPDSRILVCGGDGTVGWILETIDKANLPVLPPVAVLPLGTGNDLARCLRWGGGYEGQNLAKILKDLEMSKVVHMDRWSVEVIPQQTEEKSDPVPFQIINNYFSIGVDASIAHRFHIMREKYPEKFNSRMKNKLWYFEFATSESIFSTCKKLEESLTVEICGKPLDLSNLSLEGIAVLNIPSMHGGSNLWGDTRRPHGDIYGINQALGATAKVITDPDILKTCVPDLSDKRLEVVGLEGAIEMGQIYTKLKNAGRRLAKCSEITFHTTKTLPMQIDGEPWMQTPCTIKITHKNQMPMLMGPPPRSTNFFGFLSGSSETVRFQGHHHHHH

Row | IC50 (human DGKα; liposome (LIPGLO) assay) [µM] | IC50 (human DGKζ; liposome (LIPGLO) assay) [µM] | SMILES | IC50 [1] [µM] | IC50 ([1]; Mus musculus, MC-38) [µM] | also measured
1 | 240 | 100 | Cn1c(=O)cc(N2CCN(C(c3ccc(F)cc3)c3ccc(F)cc3)CC2C2CC2)c2nc(C#N)ccc21 (single isomer, unassigned) [Example 23, 8-(4-(bis(4-fluorophenyl)methyl)-2-cyclopropylpiperazin-1-yl)-5-methyl-6-oxo-5,6-dihydro-1,5-naphthyridine-2-carbonitrile] | 1.4 | – | EC50 (Human venous whole blood; [2]): 10 µM
2 | 1.5 | 3.9 | Cn1c(=O)cc(N2CCN(C(c3ccc(F)cc3)c3ccc(F)cc3)CC2C2CC2)c2nc(C#N)ccc21 (single isomer, unassigned) [Example 24, 8-(4-(bis(4-fluorophenyl)methyl)-2-cyclopropylpiperazin-1-yl)-5-methyl-6-oxo-5,6-dihydro-1,5-naphthyridine-2-carbonitrile] | 0.2 | – | EC50 (Human venous whole blood; [3]): 13 µM
3 | 21 | 0.85 | COC(=O)C1CN(c2cc(=O)n(C)c3ccc(C#N)nc23)CCN1C(c1ccc(F)cc1)c1ccc(F)cc1OC (single isomer, unassigned) [Example 69, Methyl 4-(6-cyano-1-methyl-2-oxo-1,2-dihydro-1,5-naphthyridin-4-yl)-1-((4-fluoro-2-methoxyphenyl)(4-fluorophenyl)methyl)piperazine-2-carboxylate] | 0.22 | – | EC50 (Human venous whole blood; [3]): 2.5 µM
4 | 240 | 52 | COC(=O)C1CN(c2cc(=O)n(C)c3ccc(C#N)nc23)CCN1C(c1ccc(F)cc1)c1ccc(F)cc1OC (single isomer, unassigned) [Example 71, Methyl 4-(6-cyano-1-methyl-2-oxo-1,2-dihydro-1,5-naphthyridin-4-yl)-1-((4-fluoro-2-methoxyphenyl)(4-fluorophenyl)methyl)piperazine-2-carboxylate] | 3.8 | – | EC50 (Human venous whole blood; [3]): 10 µM
5 | 40 | 0.76 | COC(=O)C1CN(c2cc(=O)n(C)c3ccc(C#N)nc23)CCN1C(c1ccc(F)cc1)c1ccc(F)cc1OC (single isomer, unassigned) [Example 72, Methyl 4-(6-cyano-1-methyl-2-oxo-1,2-dihydro-1,5-naphthyridin-4-yl)-1-((4-fluoro-2-methoxyphenyl)(4-fluorophenyl)methyl)piperazine-2-carboxylate] | 0.078 | – | EC50 (Human venous whole blood; [3]): 1.2 µM
6 | 0.52 | 0.31 | COC(=O)C1CN(c2c([N+](=O)[O-])c(=O)n(C)c3ccc(C#N)nc23)CCN1C(c1ccc(F)cc1)c1ccc(F)cc1 (single isomer, unassigned) [Example 73, Methyl 1-(bis(4-fluorophenyl)methyl)-4-(6-cyano-1-methyl-3-nitro-2-oxo-1,2-dihydro-1,5-naphthyridin-4-yl)piperazine-2-carboxylate] | – | 0.15 | EC50 (Human venous whole blood; [2]): 0.29 µM
7 | 23 | 8.6 | COC(=O)C1CN(c2c(F)c(=O)n(C)c3ccc(C#N)nc23)CCN1C(c1ccc(F)cc1)c1ccc(F)cc1 (single isomer, unassigned) [Example 74, Methyl 1-(bis(4-fluorophenyl)methyl)-4-(6-cyano-3-fluoro-1-methyl-2-oxo-1,2-dihydro-1,5-naphthyridin-4-yl)piperazine-2-carboxylate] | 0.29 | – | EC50 (Human venous whole blood; [2]): 8.6 µM
8 | 0.99 | 0.4 | COC(=O)C1CN(c2c(F)c(=O)n(C)c3ccc(C#N)nc23)CCN1C(c1ccc(F)cc1)c1ccc(F)cc1 (single isomer, unassigned) [Example 75, Methyl 1-(bis(4-fluorophenyl)methyl)-4-(6-cyano-3-fluoro-1-methyl-2-oxo-1,2-dihydro-1,5-naphthyridin-4-yl)piperazine-2-carboxylate] | 0.023 | – | –
9 | 0.67 | 240 | Cn1c(=O)cc(N2CCN(C(c3ccc(F)cc3)c3ccc(F)cc3)C(C(C)(C)F)C2)c2nc(C#N)ccc21 (single isomer, unassigned) [Example 80, 8-(4-(bis(4-fluorophenyl)methyl)-3-(2-fluoropropan-2-yl)piperazin-1-yl)-5-methyl-6-oxo-5,6-dihydro-1,5-naphthyridine-2-carbonitrile] | 3.1 | – | EC50 (Human venous whole blood; [2]): 10 µM
10 | 7.4 | 1.2 | CC(C)C(=O)C1CN(c2cc(=O)n(C)c3ccc(C#N)nc23)CCN1C(c1ccc(F)cc1)c1ccc(F)cc1 (single isomer, unassigned) [Example 86, 8-(4-(bis(4-fluorophenyl)methyl)-3-isobutyrylpiperazin-1-yl)-5-methyl-6-oxo-5,6-dihydro-1,5-naphthyridine-2-carbonitrile] | 0.2 | – | EC50 (Human venous whole blood; [2]): 2.9 µM
11 | 28 | 6.6 | CC(C)C(=O)C1CN(c2cc(=O)n(C)c3ccc(C#N)nc23)CCN1C(c1ccc(F)cc1)c1ccc(F)cc1 (single isomer, unassigned) [Example 87, 8-(4-(bis(4-fluorophenyl)methyl)-3-isobutyrylpiperazin-1-yl)-5-methyl-6-oxo-5,6-dihydro-1,5-naphthyridine-2-carbonitrile] | 0.45 | – | –
12 | 240 | 77 | CC(C)C(C)(O)C1CN(c2cc(=O)n(C)c3ccc(C#N)nc23)CCN1C(c1ccc(F)cc1)c1ccc(F)cc1 (single isomer, unassigned) [Example 89, 8-(4-(bis(4-fluorophenyl)methyl)-3-(2-hydroxy-3-methylbutan-2-yl)piperazin-1-yl)-5-methyl-6-oxo-5,6-dihydro-1,5-naphthyridine-2-carbonitrile] | 2.6 | – | EC50 (Human venous whole blood; [3]): 20 µM
13 | – | – | Cc1ccc(C(C)N2CCN(c3c(C#N)c(=O)n(C)c4ccc(C#N)nc34)C[C@H]2C)cc1 (single isomer, unassigned) [Example 953] | – | – | IC50 (human DGKα; DGKα liposome (LIPGLO) assay): 1.1 µM; IC50 (human DGKζ; DGKζ liposome (LIPGLO) assay): 15 µM; IC50 ([1]; murine CTL, IFN-γ): 1.7 µM
14 | – | – | C[C@@H]1CN(c2cc(=O)n(C)c3ccc(C#N)nc23)[C@@H](C)CN1C(c1ccc(F)cc1)c1ccc(F)cc1 [Example 3, 8-((2S,5R)-4-(bis(4-fluorophenyl)methyl)-2,5-dimethylpiperazin-1-yl)-5-methyl-6-oxo-5,6-dihydro-1,5-naphthyridine-2-carbonitrile] | – | 0.07 | –
15 | – | – | C[C@H]1CN(c2c(Cl)c(=O)n(C)c3ccc(C#N)nc23)CCN1C(c1ccc(F)cc1)c1ccc(F)cc1 [Example 36, (S)-8-(4-(bis(4-fluorophenyl)methyl)-3-methylpiperazin-1-yl)-7-chloro-5-methyl-6-oxo-5,6-dihydro-1,5-naphthyridine-2-carbonitrile] | – | 1.2 | –
16 | – | – | C[C@@H]1CN(c2c(C#N)c(=O)n(C)c3ccc(C#N)nc23)CCN1C(c1ccc(Cl)cc1)c1ccc(Cl)cc1 [Example 103, (R)-8-(4-(bis(4-chlorophenyl)methyl)-3-methylpiperazin-1-yl)-5-methyl-6-oxo-5,6-dihydro-1,5-naphthyridine-2,7-dicarbonitrile] | – | 0.076 | –
17 | – | – | CC[C@H]1CN(C(c2ccc(F)cc2)c2ccc(F)cc2)CCN1c1cc(=O)n(C)c2ccc(C#N)nc12 [Example 127, (S)-8-(4-(bis(4-fluorophenyl)methyl)-2-ethylpiperazin-1-yl)-5-methyl-6-oxo-5,6-dihydro-1,5-naphthyridine-2-carbonitrile] | – | 0.36 | EC50 (Human venous whole blood; Homo sapiens, 24 h, read-out: INFg Whole Blood Normalized Agonist EC50, human whole blood): 4.3 µM
18 | – | – | C[C@@H]1CN(C(c2ccc(F)cc2)c2ccc(F)cc2)[C@H](C)CN1c1cc(=O)n(C)c2ccc(C#N)nc12 [Example 131, 8-((2R,5R)-4-(bis(4-fluorophenyl)methyl)-2,5-dimethylpiperazin-1-yl)-5-methyl-6-oxo-5,6-dihydro-1,5-naphthyridine-2-carbonitrile] | – | 5.9 | –
19 | – | – | CC[C@@H]1CN(C(c2ccc(F)cc2)c2ccc(F)cc2)CCN1c1cc(=O)n(C)c2ccc(C#N)nc12 [Example 170, (R)-8-(4-(bis(4-fluorophenyl)methyl)-2-ethylpiperazin-1-yl)-5-methyl-6-oxo-5,6-dihydro-1,5-naphthyridine-2-carbonitrile] | – | 2.6 | –

— patent publication US10669272B2, “Substituted naphthyridinone compounds useful as T cell activators” (BRISTOL-MYERS SQUIBB COMPANY, priority 2018, dated 2020)
